Drawing on PubChem BioAssay (NCI), this text covers TGI and GI50 for twelve compounds.

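A five-concentration, 48-hour dose response in 96-well plates underlies each endpoint, interpolated linearly between surrounding concentrations. At the GI50, growth is halved. Definition used: TGI = concentration required for complete inhibition of growth.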 Bounds are passed on as bounds.

Some test systems named below: SK-OV-3 ovarian; ACHN renal; UACC-257 melanoma; SK-MEL-28 melanoma; RXF 393 renal; SW-620 colon; NCI-H226 lung; NCI-H23 lung; UO-31 renal; HL-60(TB) leukemia.
Common to all, as to assay: NCI tumour cell line growth inhibition, 48 h

On to `COc1ccccc1NC(=O)CC(=O)N1N=C(C)C(N=Nc2ccc(S(N)(=O)=O)cc2)C1=O` (centres undefined), for which the TGI in the assay on SK-OV-3 ovarian, in the assay on ACHN renal, in the assay with UACC-257 melanoma, in the assay on SK-MEL-28 melanoma, in the assay with RXF 393 renal and with SW-620 colon was greater than 100 µM throughout. Moreover, the TGI with NCI-H226 lung, with NCI-H23 lung and in the assay with UO-31 renal was greater than 100 µM each time.

`Cc1ccncc1.[O]=[Ge].[O]=[Ge].[O]=[Ge].[O]=[Ge].[O]=[Ge].[O]=[Ge][OH].[O]=[Ge][OH]`: the GI50 in the assay on ACHN renal, in the assay on UACC-257 melanoma, with SK-MEL-28 melanoma, in the assay on HL-60(TB) leukemia, in the assay with RXF 393 renal and in the assay with SW-620 colon was greater than 100 µM each time. In addition, the GI50 with NCI-H226 lung, with NCI-H23 lung and in the assay on UO-31 renal was greater than 100 µM throughout. Further, the TGI in the assay with ACHN renal, in the assay with UACC-257 melanoma, in the assay on SK-MEL-28 melanoma, with HL-60(TB) leukemia, with RXF 393 renal and in the assay on SW-620 colon was greater than 100 µM in each case. Also, the TGI in the assay on NCI-H226 lung, in the assay with NCI-H23 lung and with UO-31 renal was greater than 100 µM each time.

For `C[N+](C)(C)CC(=O)N/N=C(/Cc1nc2c3c(ccc2[nH]c1=O)C(=O)c1ccccc1C3=O)C(=O)Nc1ccc(Cl)c(Cl)c1`, the TGI in the assay with SK-OV-3 ovarian, with ACHN renal, in the assay on UACC-257 melanoma, in the assay with SK-MEL-28 melanoma, in the assay on HL-60(TB) leukemia and in the assay with RXF 393 renal was greater than 100 µM in each case. Moreover, the TGI in the assay with SW-620 colon is greater than 100 µM; in the assay on NCI-H23 lung, greater than 100 µM; in the assay with UO-31 renal, 47.2 µM.

For the compound `CC1(C)SC2C(NC(=O)C(N)c3ccccc3)C(=O)N2C1C(=O)O` (centres undefined), the TGI in the assay with ACHN renal, in the assay on UACC-257 melanoma, with SK-MEL-28 melanoma, in the assay with HL-60(TB) leukemia, with SW-620 colon and with NCI-H23 lung was greater than 100 µM each time. In the assay on UO-31 renal, this compound displayed a TGI greater than 100 µM.

For `CN(C)/C=C/c1nnc([N+](=O)[O-])s1`, the TGI was 55.2 µM with SK-OV-3 ovarian; 31.9 µM in the assay with ACHN renal; 27.2 µM in the assay with UACC-257 melanoma; 31.4 µM in the assay with RXF 393 renal; 33.1 µM in the assay with SW-620 colon; 41.9 µM with NCI-H226 lung. In addition, the TGI is 36.8 µM in the assay with NCI-H23 lung and 29.7 µM in the assay with UO-31 renal.

For `CCCc1[nH]nc(CCC(=O)N(Cc2ccccc2)Cc2ccccc2)c1CC`, the TGI with SK-OV-3 ovarian, in the assay on ACHN renal, in the assay with UACC-257 melanoma, with SK-MEL-28 melanoma, in the assay on RXF 393 renal and in the assay with SW-620 colon was greater than 100 µM in each case. The TGI with NCI-H226 lung, with NCI-H23 lung and in the assay with UO-31 renal was greater than 100 µM throughout.

As to `c1cc(-c2cn3ccsc3n2)ccn1`, the TGI was greater than 100 µM with SK-OV-3 ovarian; greater than 100 µM in the assay on ACHN renal; greater than 100 µM in the assay on UACC-257 melanoma; greater than 100 µM in the assay with SK-MEL-28 melanoma; greater than 60.1 µM in the assay with HL-60(TB) leukemia; greater than 62.3 µM in the assay on SW-620 colon. Moreover, the TGI in the assay with NCI-H226 lung, in the assay on NCI-H23 lung and with UO-31 renal was greater than 100 µM each time.

With `Nc1ccn(Cc2ccc(C34CC5CC(CC(C5)C3)C4)c(O)c2)c(=O)n1`, the GI50 was greater than 100 µM in the assay with SK-OV-3 ovarian; greater than 100 µM in the assay with ACHN renal; greater than 100 µM in the assay with SK-MEL-28 melanoma; 62.9 µM in the assay on HL-60(TB) leukemia; greater than 100 µM in the assay on SW-620 colon; greater than 100 µM in the assay with NCI-H226 lung. The GI50 is 54.5 µM with NCI-H23 lung and greater than 100 µM with UO-31 renal. Also, the TGI in the assay with SK-OV-3 ovarian, with ACHN renal, in the assay on SK-MEL-28 melanoma, with HL-60(TB) leukemia, in the assay with SW-620 colon and in the assay on NCI-H226 lung was greater than 100 µM throughout. Further, the TGI in the assay on NCI-H23 lung and in the assay on UO-31 renal was greater than 100 µM in each case.

On to `Cc1ccc(-c2c(N)[n+]([O-])c3ccccc3[n+]2[O-])cc1`, for which the TGI in the assay on SK-OV-3 ovarian is 35.9 µM; with ACHN renal it was 29.1 µM; in the assay on UACC-257 melanoma, 23.5 µM; in the assay on SK-MEL-28 melanoma, 20 µM; in the assay with HL-60(TB) leukemia, greater than 100 µM; with SW-620 colon, 23.3 µM. Moreover, the TGI in the assay on NCI-H226 lung came out at 39.6 µM; in the assay with NCI-H23 lung it was 19.5 µM; in the assay with UO-31 renal, 29.7 µM.

In the case of `O=C1c2ccccc2-c2c1c1ccccc1c(=O)n2CCCNCCCNCCCn1c2c(c3ccccc3c1=O)C(=O)c1ccccc1-2`, the GI50 in the assay with SK-OV-3 ovarian was 1.9 µM; in the assay with ACHN renal, less than 0.01 µM; in the assay on UACC-257 melanoma it was 0.811 µM; in the assay on SK-MEL-28 melanoma it was 1.17 µM; with RXF 393 renal it was 0.0569 µM; in the assay on SW-620 colon, less than 0.01 µM. The GI50 in the assay on NCI-H226 lung is less than 0.014 µM; with NCI-H23 lung, 0.0383 µM; in the assay with UO-31 renal it was 0.0878 µM. For the same compound, the TGI in the assay with SK-OV-3 ovarian was found to be 6.04 µM; in the assay with ACHN renal, 0.388 µM; in the assay with UACC-257 melanoma, 2.25 µM; in the assay with SK-MEL-28 melanoma, 2.83 µM; in the assay with RXF 393 renal it was 1.11 µM; with SW-620 colon, 0.15 µM. Besides, the TGI was 0.903 µM in the assay on NCI-H226 lung, 1.64 µM in the assay with NCI-H23 lung and 0.215 µM with UO-31 renal.

`COC(=O)c1csnn1`: the TGI in the assay with SK-OV-3 ovarian, in the assay on ACHN renal, with UACC-257 melanoma, in the assay with SK-MEL-28 melanoma, in the assay on HL-60(TB) leukemia and in the assay with SW-620 colon was greater than 100 µM each time. In addition, the TGI in the assay on NCI-H226 lung, in the assay with NCI-H23 lung and in the assay on UO-31 renal was greater than 100 µM each time.

For `CC1CCCCc2nc3c(c(=O)n21)CCCC3` (centres undefined), the TGI in the assay with SK-OV-3 ovarian, with ACHN renal, in the assay on UACC-257 melanoma, in the assay on SK-MEL-28 melanoma, in the assay with SW-620 colon and in the assay with NCI-H226 lung was greater than 100 µM each time. The TGI in the assay with NCI-H23 lung and with UO-31 renal was greater than 100 µM throughout.
